In patent US20160374944A1, “COMPOSITIONS AND METHODS FOR TREATING AND PREVENTING CANCER BY TARGETING AND INHIBITING CANCER STEM CELLS” (priority 2011, published 2016):

Key:
Breast CSCs = assay: cell viability by XTT assay; type: cell-based; conditions: 3 days
Method: Breast CSCs were seeded in 96-well plate and treated with sulforaphane, diallyl trisulphide, resveratrol and curcumin for 3 days. At the end of incubation period, CSCs were harvested and cell viability was measured by XTT assay.
Breast CSCs were seeded in 96-well plate and treated with rottlerin, EGCG, embelin, and honokiol for 3 days. At the end of incubation period, breast CSCs were harvested and cell viability was measured by XTT assay.
(A-D) Breast CSCs were treated with PITC (0-20 μM), BSC, (0-20 μM), sulforaphane (0-20 μM) and honokiol (0-10 μM) for 3 days, and cell viability was measured by XTT assay.
Breast CSCs were treated with rottlerin (0-1 μM) for 3 days, and cell viability was measured by XTT assay.
Breast CSCs were seeded in 96-well plate and treated with sulforaphane, diallyl trisulphide, resveratrol, and curcumin for 3 days and cell viability was measured by XTT assay. The results of those studies are illustrated in FIG. 29.
Breast CSCs were seeded in 96-well plate and treated with Rottlerin, EGCG, embelin, and honokiol for 3 days and cell viability was measured by XTT assay. The results of those studies are illustrated in FIG. 30.

Prostate CSCs = assay: cell viability, trypan blue, Vi-CELL analyzer; type: cell-based, human; conditions: 3 days
Method: Prostate CSCs were treated with resveratrol (0-20 μM), curcumin (0-20 μM), honokiol (0-20 μM) and diallyl trisulphide (0-10 μM) for 3 days, and cell viability was measured by staining with trypan blue using Vi-CELL analyzer (Beckman Counter).
Prostate CSCs were treated with sulforaphane (0-20 μM), rottlerin (0-5 μM), EGCG (0-40 μM) and embelin (0-1 μM) for 3 days, and cell viability was measured by staining with trypan blue using Vi-CELL analyzer (Beckman Counter).
Prostate CSCs were treated with resveratrol (0-20 μM), curcumin (0-20 μM), honokiol (0-20 μM), and diallyl trisulphide (0-10 μM) for 3 days and cell viability was measured by staining with trypan blue using Vi-CELL analyzer. The results of those studies are illustrated in FIG. 25.
Prostate CSCs were treated with sulforaphane (0-20 μM), rottlerin (0-5 μM), EGCG (0-40 μM), and embelin (0-1 μM) for 3 days and cell viability was measured by staining with trypan blue using Vi-CELL analyzer. The results of those studies are illustrated in FIG. 26.

Pancreatic CSCs = assay: spheroid formation and cell viability in spheroids (trypan blue); type: cell-based, human; conditions: for cell viability in spheroids: EGCG 0-60 μM with or without quercetin 20 μM
Method: (A) Pancreatic CSCs were grown in six-well ultralow attachment plates (Corning Inc., Corning, N.Y.) at a density of 1,000 cells/ml in DMEM supplemented with 1% N2 Supplement (Invitrogen), 2% B27 Supplement (Invitrogen), 20 ng/ml human platelet growth factor (Sigma-Aldrich), 100 ng/ml EGF (Invitrogen) and 1% antibiotic-antimycotic (Invitrogen) at 37° C. in a humidified atmosphere of 95% air and 5% CO2 and treated with rottlerin (0-2 μM) for 7 days to obtain primary spheroids. At the end of incubation period, spheroids were collected, reseeded and treated with rottlerin for another week to obtain secondary spheroids. (B) Cell viability in spheroids was measured by trypan blue assay at the end of 7 and 14 days from the above experiment.
(A) Pancreatic CSCs were seeded in suspension and treated with EGCG (0-60 μM) for 7 days. Pictures of spheroids formed in suspension were taken by a microscope. (B) Pancreatic CSCs were seeded in suspension and treated with EGCG (0-60 μM) for 7 days. At the end of incubation period, spheroids were collected, and dissociated with Accutase (Innovative Cell Technologies, Inc.). For secondary spheroids, cells were reseeded and treated with EGCG (0-60 μM) for 7 days. Cell viability was measured by trypan blue assay. […] Pancreatic CSCs were seeded in soft agar and treated with various doses of EGCG and incubated at […] for 21 days. At the end of incubation period, colonies were counted.
(A) Pancreatic CSCs were treated with EGCG (0-60 μM) for 36 h. At the end of incubation period, cells were harvested and the expression of Nanog, Sox-2, c-Myc and Oct-4 was measured by the q-RT-PCR. […] Pancreatic CSCs were transduced with either scrambled shRNA or Nanog shRNA expressing lentiviral vector (pLKO.1), and cell lysates were collected and western blot analysis was performed using anti-Nanog antibody (data not shown). CSC/scrambled and CSC/Nanog shRNA were seeded as described above and treated with EGCG (0-60 μM). After 7 days, spheroids were collected and cell suspensions were prepared and viable cells were counted by trypan blue assay.
(A) Effects of EGCG and quercetin on spheroid and colony formation. […] CSCs were seeded in suspension and treated with EGCG (0-60 μM) with or without quercetin (20 μM) for 7 days. At the end of incubation period, all the spheroids were collected and resuspended. Cell viability was measured by trypan blue assay. […] Pancreatic CSCs were seeded in soft agar and treated with various doses of EGCG (0-60 μM) with or without quercetin (20 μM) and incubated at […] for 21 days. At the end of incubation period, colonies were counted. […] (B) Effects of EGCG and quercetin on invasion and migration. Upper panel, Matrigel invasion assay. CSCs were plated onto the Matrigel-coated membrane in the top chamber of the transwell and treated with EGCG (0-60 μM) with or without quercetin (20 μM) for 48 hrs. Cells invaded to the lower chambered were fixed with methanol, stained with crystal violet and counted. […] Lower panel, Transwell migration assay. Pancreatic CSCs were plated in the top chamber of the transwell and treated with EGCG (0-60 μM) with or without quercetin (20 μM) for 48 hrs. Cells migrated to the lower chambered were fixed with methanol, stained with crystal violet and counted. […] CSCs were seeded in suspension and treated with EGCG (0-60 μM) with or without quercetin (20 μM) for 7 days. At the end of incubation period, all the spheroids were collected.

O=C(O[C@@H]1Cc2c(O)cc(O)cc2O[C@@H]1c1cc(O)c(O)c(O)c1)c1cc(O)c(O)c(O)c1 [EGCG, epigallocatechin gallate]
cell viability (Breast CSCs): inhibit cell viability | cell viability (Prostate CSCs): inhibit cell viability | CSC viability in spheroids (Pancreatic CSCs; CSCs transduced with Nanog shRNA, EGCG 0-60 μM, 7 days): further enhanced the antiproliferative effects | CSC viability in spheroids (Pancreatic CSCs; CSCs transduced with scrambled shRNA, EGCG 0-60 μM, 7 days): inhibited CSC's viability in spheroids transduced with Nanog-scrambled shRNA in a dose-dependent manner | cell viability in spheroids (Pancreatic CSCs; 7 days): inhibited cell viability in spheroids, colony formation, migration and invasion by CSCs in a dose-dependent manner | growth (size) of spheroids in suspension (Pancreatic CSCs; EGCG 0-60 μM, 7 days): inhibited the growth (size) of spheroids in suspension in a dose dependent manner | CSC viability in primary and secondary spheroids (Pancreatic CSCs; EGCG 0-60 μM, 7 days each, trypan blue): inhibited CSC's viability in primary and secondary spheroids in a dose-dependent manner

O=c1c(O)c(-c2ccc(O)c(O)c2)oc2cc(O)cc(O)c12 [quercetin]
cell viability in spheroids (Pancreatic CSCs; 7 days): effective alone

CC(=O)c1c(O)c(C)c(O)c(Cc2c(O)c3c(c(C(=O)/C=C/c4ccccc4)c2O)OC(C)(C)C=C3)c1O [rottlerin]
cell viability (Breast CSCs): inhibits cell viability | cell viability (Prostate CSCs): inhibit cell viability | size of primary and secondary spheroids in suspension (Pancreatic CSCs; rottlerin 0-2 μM, 7 and 14 days): inhibited the size | cell viability of spheroids (Pancreatic CSCs; rottlerin 0-2 μM, 7 and 14 days, trypan blue): inhibited

C[S+]([O-])CCCCN=C=S (centres unmarked) [sulforaphane]
cell viability (Breast CSCs): inhibit cell viability | cell viability (Prostate CSCs): inhibit cell viability
